Experimental data published in patent US8486921B2, “Synthesis of tetracyclines and analogues thereof” (President and Fellows of Harvard College, priority 2006, dated 2013).

Test system: Gram-positive strains
Assay: Whole-cell antibacterial MIC assay (NCCLS serial dilution), Gram-positive strains
Assay type: cell-based
Details: each of the Gram-positive strains examined, including strains with resistance to tetracycline, methicillin, and vancomycin
Method: The efficiencies of the synthetic sequences have allowed for the preparation of sufficient quantities of each tetracycline analog for antibacterial testing using standard serial-dilution techniques (5-20 mg amounts). Minimum inhibitory concentrations (MICs) are reported for each analog in whole-cell antimicrobial assays using five Gram-positive and five Gram-negative organisms (FIG. 18).
Whole-cell antibacterial activity was determined according to methods recommended by the NCCLS-(National Committee for Clinical Laboratory Standards. 2002. Methods for dilution antimicrobial susceptibility tests for bacteria that grow aerobically: approved standard-fifth edition. NCCLS document M100-S12. National Committee for Clinical Laboratory Standards. Wayne, Pa.; incorporated herein by reference). Test compounds were dissolved in dimethyl sulfoxide (DMSO) and the resulting solutions were diluted in water (1:10) to produce stock solutions with a final concentration of 256 μg tetracycline analog per mL. In a 96-well microtiter plate, 50-μL aliquots of stock solutions were diluted serially into cation-adjusted Mueller-Hinton broth (MHB; Becton-Dickinson, Cockeysville, Md.). Test organisms (50 μL aliquots of solutions […]) were then added to the appropriate wells of the microtiter plate. […] The MIC was the lowest concentration of compound determined to inhibit visible growth. […]

## CN(C)[C@@H]1C(O)=C(C(N)=O)C(=O)[C@@]2(O)C(O)=C3C(=O)c4c(cc5ccccc5c4O)C[C@H]3C[C@@H]12 [compound 6]
  antibacterial activity (MIC) compared with tetracycline: activity equal to or greater than tetracycline
